The values below come from patent US8546381B2, “Bridged heterocyclic compounds and methods of use” (Medivation Technologies, Inc., priority 2008, dated 2013).

For orientation: inhibition means the change of the read-out against control, counted positive when it falls.

Experiment [1] concerns the target T1, human recombinant histamine H1 receptor (Homo sapiens, UniProt P35367).
T1 construct: expressed in transfected cells; host or cells: CHO cells
The experiment is described as follows: Histamine H1 radioligand binding ([3H]Pyrilamine). The note with it: compound at 1 μM, inhibition of specific [3H]Pyrilamine binding; for inhibition at 1 µM: read-out: Histamine Binding (1 μM) H1, Percentage Inhibition. The procedure:
To evaluate in radioligand binding assays the activity of compounds of the invention, human recombinant histamine H1 receptor expressed in Chinese hamster ovary (CHO) cells (De Backer, M. D. et al., Biochem. Biophys. Res. Comm. 197(3):1601, 1993) in a modified Tris-HCl buffer (50 mM Tris-HCl, pH 7.4, 2 mM MgCl2, 100 mM NaCl, 250 mM Sucrose) was used. Compounds of the invention were incubated with 1.2 nM [^3H]Pyrilamine for 180 minutes at 25° C. Non-specific binding was estimated in the presence of 1 μM pyrilamine. Receptor proteins were filtered and washed, the filters were then counted to determine [^3H]Pyrilamine specifically bound. Compounds were screened at 1 μM or lower, using 1% DMSO as vehicle. Biochemical assay results are presented as the percent inhibition of specific binding in Table 2.

Experiment [2] concerns the target T2, human recombinant adrenergic α2B receptor (Homo sapiens, UniProt P18089).
T2 construct: expressed in transfected cells; host or cells: CHO-K1 cells
T2 sequence (P18089 1-450): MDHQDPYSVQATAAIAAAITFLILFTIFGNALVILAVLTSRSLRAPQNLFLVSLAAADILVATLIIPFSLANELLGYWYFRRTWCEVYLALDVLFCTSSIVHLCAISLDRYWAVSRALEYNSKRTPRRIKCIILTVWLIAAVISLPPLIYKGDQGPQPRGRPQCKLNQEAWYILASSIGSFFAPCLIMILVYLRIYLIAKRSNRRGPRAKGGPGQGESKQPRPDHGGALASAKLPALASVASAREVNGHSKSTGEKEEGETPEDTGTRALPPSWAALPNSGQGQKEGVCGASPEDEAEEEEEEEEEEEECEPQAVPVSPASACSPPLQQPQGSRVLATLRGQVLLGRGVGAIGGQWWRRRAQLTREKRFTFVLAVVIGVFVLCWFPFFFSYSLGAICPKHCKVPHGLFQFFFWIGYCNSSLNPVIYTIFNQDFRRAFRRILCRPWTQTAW
The experiment can be described thus: Adrenergic α2B radioligand binding ([3H]Rauwolscine). The note with it: 1 μM; for inhibition at 1 µM: read-out: Adrenergic α2B, inhibition of ligand binding (1 μM). The procedure: To evaluate in radioligand binding assays the activity of compounds of the invention, human recombinant adrenergic α2B receptor expressed in Chinese hamster ovary (CHO-K1) cells (Uhlen S et al. Eur J. Pharmacol. 343(1):93, 1998) in a modified Tris-HCl buffer (50 mM Tris-HCl, pH 7.4, 12.5 mM MgCl2, 1 mM EDTA, 0.2% BSA) was used. Compounds of the invention were incubated with 2.5 nM [^3H]Rauwolscine for 60 minutes at 25° C. Non-specific binding was estimated in the presence of 10 μM Prozosin. Receptor proteins were filtered and washed, the filters were then counted to determine [^3H]Rauwolscine specifically bound. Compounds were screened at 1 μM or lower, using 1% DMSO as vehicle. Biochemical assay results are presented as the percent inhibition of specific binding in Table 3.

For experiment [3], the target named is T3, human recombinant histamine H2 receptor (Homo sapiens, UniProt P25021).
T3 construct: expressed in transfected cells; host or cells: CHO-K1 cells
The experiment is described as follows: Histamine H2 radioligand binding ([125I]Aminopotentidine). The conditions noted are these: compound at 1 μM, inhibition of specific [125I]Aminopotentidine binding; for inhibition at 1 µM: read-out: Histamine Binding (1 μM) H2, Percentage Inhibition. How it is done:
To evaluate in radioligand binding assays the activity of compounds of the invention, human recombinant histamine H2 receptor expressed in Chinese hamster ovary (CHO) K1 cells (Ruat, M., Proc. Natl. Acad. Sci. USA. 87(5):1658, 1990) in a 50 mM Phosphate buffer, pH 7.4 was used. Compounds of the invention were incubated with 0.1 nM [^125I]Aminopotentidine for 120 minutes at 25° C. Non-specific binding was estimated in the presence of 3 μM Tiotidine. Receptor proteins were filtered and washed, the filters were then counted to determine [^125I]Aminopotentidine specifically bound. Compounds were screened at 1 μM or lower, using 1% DMSO as vehicle. Biochemical assay results are presented as the percent inhibition of specific binding in Table 2.

In experiment [4] the target is T4, human recombinant adrenergic α1D receptor (Homo sapiens, UniProt P25100).
T4 construct: expressed in transfected cells; host or cells: HEK-293 cells
T4 sequence (P25100 1-572): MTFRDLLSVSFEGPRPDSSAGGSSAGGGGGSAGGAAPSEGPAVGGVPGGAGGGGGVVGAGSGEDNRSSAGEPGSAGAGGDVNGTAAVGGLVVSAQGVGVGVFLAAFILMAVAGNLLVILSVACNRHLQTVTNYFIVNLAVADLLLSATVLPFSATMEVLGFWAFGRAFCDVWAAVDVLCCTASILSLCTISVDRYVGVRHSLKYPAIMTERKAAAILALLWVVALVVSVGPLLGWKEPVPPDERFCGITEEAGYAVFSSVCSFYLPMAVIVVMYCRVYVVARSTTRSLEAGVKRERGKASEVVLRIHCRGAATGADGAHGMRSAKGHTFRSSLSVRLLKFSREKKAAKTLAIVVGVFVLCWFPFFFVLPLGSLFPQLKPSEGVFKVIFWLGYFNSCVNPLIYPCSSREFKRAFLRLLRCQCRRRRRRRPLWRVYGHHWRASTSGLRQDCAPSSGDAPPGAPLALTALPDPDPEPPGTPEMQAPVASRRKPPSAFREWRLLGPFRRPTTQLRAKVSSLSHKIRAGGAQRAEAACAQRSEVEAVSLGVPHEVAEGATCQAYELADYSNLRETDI
The experiment can be described thus: Adrenergic α1D radioligand binding ([3H]Prozosin). The conditions noted are these: 1 μM; for inhibition at 1 µM: read-out: Adrenergic α1D, inhibition of ligand binding (1 μM). How it is done: To evaluate in radioligand binding assays the activity of compounds of the invention, human recombinant adrenergic α1D receptor expressed in human embryonic kidney (HEK-293) cells (Kenny, B. A. et al. Br. J. Pharmacol. 115(6):981, 1995) in a 50 mM Tris-HCl buffer, pH 7.4, was used. Compounds of invention were incubated with 0.6 nM [^3H]Prozosin for 60 minutes at 25° C. Non-specific binding was estimated in the presence of 10 μM phentolamine. Receptor proteins were filtered and washed, the filters were then counted to determine [^3H]Prozosin specifically bound. Compounds were screened at 1 μM or lower, using 1% DMSO as vehicle. Biochemical assay results are presented as the percent inhibition of specific binding in Table 3.

T3 sequence (P25021 whole entry): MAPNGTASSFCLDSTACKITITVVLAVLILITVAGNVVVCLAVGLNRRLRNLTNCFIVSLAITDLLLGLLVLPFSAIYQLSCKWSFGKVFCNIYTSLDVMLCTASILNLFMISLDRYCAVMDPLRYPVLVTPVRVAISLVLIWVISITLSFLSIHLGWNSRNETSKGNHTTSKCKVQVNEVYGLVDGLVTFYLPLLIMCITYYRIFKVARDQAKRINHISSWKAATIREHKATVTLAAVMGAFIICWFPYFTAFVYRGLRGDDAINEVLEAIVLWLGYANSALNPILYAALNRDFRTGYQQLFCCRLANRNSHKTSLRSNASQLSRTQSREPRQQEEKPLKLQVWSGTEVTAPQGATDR
T1 sequence (P35367 whole entry): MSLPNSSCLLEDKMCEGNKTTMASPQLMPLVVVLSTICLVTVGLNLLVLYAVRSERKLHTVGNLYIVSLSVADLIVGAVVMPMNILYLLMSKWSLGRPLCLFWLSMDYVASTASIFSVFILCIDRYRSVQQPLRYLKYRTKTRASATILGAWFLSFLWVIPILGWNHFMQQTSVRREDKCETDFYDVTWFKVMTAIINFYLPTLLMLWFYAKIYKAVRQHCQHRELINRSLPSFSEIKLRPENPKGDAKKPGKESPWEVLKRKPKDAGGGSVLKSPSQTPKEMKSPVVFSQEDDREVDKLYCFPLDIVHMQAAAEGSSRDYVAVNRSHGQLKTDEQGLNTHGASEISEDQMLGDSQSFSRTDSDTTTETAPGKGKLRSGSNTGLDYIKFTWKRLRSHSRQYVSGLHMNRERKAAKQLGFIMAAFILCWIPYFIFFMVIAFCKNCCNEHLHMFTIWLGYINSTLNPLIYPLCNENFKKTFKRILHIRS

`COc1ccc(CCn2c3c(c4cc(Cl)ccc42)C2CCC(C3)N2C)cc1` (centres unmarked) [Compound 84]: the inhibition at 1 µM was 83% in experiment [1], 98% in experiment [2], 63% in experiment [3] and 19% in experiment [4].

Regarding `CN1C2CCC1c1c(n(CCc3ccc(C(F)(F)F)nc3)c3ccc(Cl)cc13)C2` (centres unmarked) [Compound 34], in experiment [1], the “Histamine Binding (1 μM) H1, Percentage Inhibition” value is 55.0% and the inhibition at 1 µM was found to be 52%. In experiment [2], the “Adrenergic α2B, inhibition of ligand binding (1 μM)” value stood at 100.0% and the inhibition at 1 µM was determined as 103%. The “Histamine Binding (1 μM) H2, Percentage Inhibition” value in experiment [3] (1 µM) was found to be 24.0%. Also, the inhibition at 1 µM in experiment [3] is 12%. In experiment [4], the “Adrenergic α1D, inhibition of ligand binding (1 μM)” value worked out at 56.0% and the inhibition at 1 µM stood at 61%.

In the case of `Cc1ccc2c(c1)c1c(n2CC(O)c2ccc(C)nc2)CC2CCC1N2C` (centres unmarked) [Compound 91], the inhibition at 1 µM in experiment [1] was 51%; in experiment [2] it was 67%; in experiment [3], 9%; in experiment [4] it was 24%.

Take `C/C(=C\n1c2c(c3cc(Cl)ccc31)C1CCC(C2)N1C)c1ccc(Cl)cc1` (centres unmarked) [Compound 125]: the inhibition at 1 µM in experiment [1] was 82%; in experiment [2], 103%; in experiment [3] it was 96%; in experiment [4], 54%.

`Cc1ccc2c(c1)c1c(n2CCc2ccc(F)cc2)CC2CCC1N2C` (centres unmarked) [Compound 62]: the inhibition at 1 µM is 98% in experiment [1], 104% in experiment [2], 52% in experiment [3] and 83% in experiment [4].

Consider `Cc1ccc(CCn2c3c(c4cc(Cl)ccc42)C2CCC(C3)N2C)cn1` (centres unmarked) [Compound 79], for which the inhibition at 1 µM in experiment [1] stood at 93%; in experiment [2], 87%; in experiment [3], 1%; in experiment [4], 72%.

On to `COc1ccc(C(C)(O)Cn2c3c(c4cc(Cl)ccc42)C2CCC(C3)N2C)cc1F` (centres unmarked) [Compound 160], for which the inhibition at 1 µM in experiment [1] worked out at 86%; in experiment [2], 80%; in experiment [3], 22%; in experiment [4], 0%.

On to `Cc1ccc2c(c1)c1c(n2C#Cc2ccc(F)cc2)CC2CCC1N2C` (centres unmarked) [Compound 141], for which the inhibition at 1 µM turned out to be 2% in experiment [1], 95% in experiment [2], 25% in experiment [3] and 20% in experiment [4].

With `CN1C2CCC1c1c(n(C#Cc3ccc(Cl)cc3)c3ccc(Cl)cc13)C2` (centres unmarked) [Compound 142], the inhibition at 1 µM in experiment [1] stood at 34%; in experiment [2] it was 95%; in experiment [3] it was 71%; in experiment [4], 27%.

Consider `Cc1ccc2c(c1)c1c(n2CC(=O)N2CCCCC2)CC2CCC1N2C` (centres unmarked) [Compound 93], for which the inhibition at 1 µM is 4% in experiment [1], -6% in experiment [2], -5% in experiment [3] and -18% in experiment [4].

Turning to `Cc1ccc(CCCn2c3c(c4cc(Cl)ccc42)C2CCC(C3)N2C)cn1` (centres unmarked) [Compound 38], the inhibition at 1 µM in experiment [1] is 96%; in experiment [2] it was 76%; in experiment [3], 9%; in experiment [4], 50%.

For `Cc1cncc(CCn2c3c(c4cc(Cl)ccc42)C2CCC(C3)N2C)c1` (centres unmarked) [Compound 89], the inhibition at 1 µM in experiment [1] was 92%; in experiment [2] it was 76%; in experiment [3], -1%; in experiment [4] it was 44%.

Turning to `Cc1ccc2c(c1)c1c(n2CCC#N)CC2CCC1N2C` (centres unmarked) [Compound 103], the inhibition at 1 µM was determined as 85% in experiment [1], 94% in experiment [2], 1% in experiment [3] and 86% in experiment [4].

Turning to `CN1C2CCC1c1c(n(C#Cc3ccc(F)cc3)c3ccc(Cl)cc13)C2` (centres unmarked) [Compound 138], the inhibition at 1 µM worked out at 57% in experiment [1], 109% in experiment [2], 70% in experiment [3] and 60% in experiment [4].

As for `CN1C2CCC1c1c(n(CCC(=O)N3CCS(=O)(=O)CC3)c3ccc(Cl)cc13)C2` (centres unmarked) [Compound 11], the inhibition at 1 µM in experiment [1] is 2%; in experiment [2], 1%; in experiment [3], 9%; in experiment [4], -11%.

Regarding `Cc1ccc(C(O)Cn2c3c(c4cc(Cl)ccc42)C2CCC(C3)N2C)cn1` (centres unmarked) [Compound 52], the inhibition at 1 µM came to 91% in experiment [1], 85% in experiment [2], 2% in experiment [3] and 33% in experiment [4].

On to `COc1ccc(CCn2c3c(c4cc(C)ccc42)C2CCC(C3)N2C)cc1` (centres unmarked) [Compound 83], for which the inhibition at 1 µM turned out to be 98% in experiment [1], 94% in experiment [2], 15% in experiment [3] and 80% in experiment [4].

Take `C/C(=C\n1c2c(c3cc(Cl)ccc31)C1CCC(C2)N1C)c1ccc(F)cc1` (centres unmarked) [Compound 123]: the inhibition at 1 µM in experiment [1] worked out at 62%; in experiment [2] it was 103%; in experiment [3], 93%; in experiment [4] it was 79%.

For the molecule `Cc1ccc2c(c1)c1c(n2CCCc2ccc(Cl)cc2)CC2CCC1N2C` (centres unmarked) [Compound 85], the inhibition at 1 µM in experiment [1] was determined as 99%; in experiment [2], 92%; in experiment [3] it was 81%; in experiment [4], 43%.

With `Cc1ccc2c(c1)c1c(n2CCc2ccc(C(F)(F)F)nc2)CC2CCC1N2C` (centres unmarked) [Compound 71], in experiment [1], the “Histamine Binding (1 μM) H1, Percentage Inhibition” value worked out at 46.0% and the inhibition at 1 µM came out at 33%. Moreover, in experiment [2], the “Adrenergic α2B, inhibition of ligand binding (1 μM)” value came out at 98.0% and the inhibition at 1 µM was found to be 99%. In experiment [4], the “Adrenergic α1D, inhibition of ligand binding (1 μM)” value came out at 63.0% and the inhibition at 1 µM came to 62%.
